Assay [1] concerns Mycobacterium tuberculosis. Briefly: Antimicrobial activity against rifamycin-resistant Mycobacterium tuberculosis by resazurin microtiter assay. The assay is classed as functional. On the technique in general: Resazurin is reduced to fluorescent resorufin, in cell work by metabolically active cells.
The subject of assay [2] is Mycobacterium tuberculosis. Put plainly: Antimicrobial activity against multidrug-resistant Mycobacterium tuberculosis by resazurin microtiter assay. It counts as functional.

≈ marks a conversion by molar mass, not a printed value.

In general, MIC refers to the lowest concentration found to suppress growth. For `CO[C@H]1/C=C/O[C@@]2(C)Oc3c(C)c(O)c4c(O)c(c(/C=N/N5CCN(C)CC5)c(O)c4c3C2=O)NC(=O)/C(C)=C\C=C\[C@H](C)[C@H](O)[C@@H](C)[C@@H](O)[C@@H](C)[C@H](OC(C)=O)[C@@H]1C` [RIFAMPIN], the figures for the minimum inhibitory concentration (MIC) in assay [1] and in assay [2] were 256 µg/mL (≈ 311 µM) and 128 µg/mL (≈ 156 µM), respectively.
On to `CCOc1ccc(NC(=O)Nc2ccc(OC[C@@]3(C)Cn4cc([N+](=O)[O-])nc4O3)cc2)cc1`, for which the values for the MIC in assay [1] and in assay [2] were 1 µg/mL (≈ 2.21 µM) and more than 8 µg/mL, respectively.
On to `C[C@]1(COc2ccc(NC(=O)Nc3ccc(Cl)cc3)cc2)Cn2cc([N+](=O)[O-])nc2O1`, for which the minimum inhibitory concentration (MIC) in assay [1] was 0.67 µg/mL (≈ 1.51 µM); in assay [2] it was more than 8 µg/mL.
For `C[C@]1(COc2ccc(N3CCN(S(=O)(=O)c4ccc(F)cc4)CC3)cc2)Cn2cc([N+](=O)[O-])nc2O1`, in that order: 1 µg/mL (≈ 1.93 µM) and more than 8 µg/mL.
For the compound `C[C@]1(COc2ccc(S(=O)(=O)N3CCCCC3)cc2)Cn2cc([N+](=O)[O-])nc2O1`, the figures for the MIC in assay [1] and in assay [2] were 3.34 µg/mL (≈ 7.91 µM) and more than 8 µg/mL, respectively.
For `C[C@]1(COc2ccc(-n3cc(COc4ccc(OC(F)(F)F)cc4)nn3)cc2)Cn2cc([N+](=O)[O-])nc2O1`, in that order: 0.06 µg/mL (≈ 0.113 µM) and 0.12 µg/mL (≈ 0.225 µM).
In assay [2], `COc1c(N2CCNC(C)C2)c(F)cc2c(=O)c(C(=O)O)cn(C3CC3)c12` (centres undefined) [GATIFLOXACIN] displayed an MIC of 0.5 µg/mL (≈ 1.33 µM).
Regarding `COc1ccc(NC(=S)Nc2ccc(OC[C@@]3(C)Cn4cc([N+](=O)[O-])nc4O3)cc2)cc1`, the MIC in assay [1] is 2 µg/mL (≈ 4.39 µM); in assay [2], more than 8 µg/mL.
Regarding `C[C@]1(COc2ccc(N3CCC(Oc4ccc(OC(F)(F)F)cc4)CC3)cc2)Cn2cc([N+](=O)[O-])nc2O1`, the values for the MIC in assay [1] and in assay [2] were 0.005 µg/mL (≈ 0.00935 µM) and 0.02 µg/mL (≈ 0.0374 µM), respectively.
For `C[C@]1(COc2ccc(S(=O)(=O)N3CCOCC3)cc2)Cn2cc([N+](=O)[O-])nc2O1`, in that order: 1 µg/mL (≈ 2.36 µM) and 2 µg/mL (≈ 4.71 µM).

(Values after ChEMBL document CHEMBL3739292, “Synthesis and Biological Evaluation of Polar Functionalities Containing Nitrodihydroimidazooxazoles as Anti-TB Agents” (ACS Med Chem Lett, 2015).)
